Assay results: patent US7795226B2, “Control of radiation injury” (Biotempt B.V., priority 2006, dated 2010)
Values joined by “and” are separate entries in the source; they are usually repeats but may differ in a detail not shown here. Identical values can stand only once.

How the values were obtained:
Format in all cases: in vivo
[1] = tested on: renal ischemia reperfusion in mice; assay: mouse renal ischemia reperfusion test; design: BUN after 25 minutes renal ischemia, mean / Urea levels in dose-response experiment: unit not given here
Procedure, shortened: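 In anesthetized mice kept at 37° C, the left renal pedicle was clamped for 25 min and the right kidney removed after reperfusion. Peptide in saline was given i.v. (5 mg/kg; other series 0.3–30 mg/kg) 5 min before clamping and 5 min before release, with PBS as control. Mortality and BUN were measured at 2, 24 and 72 h; P values were calculated by Mann-Whitney U-test.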

[2] = tested on: LPS (E. coli 026:B6)-induced septic shock in BALB/c mice; assay: LPS-induced septic shock, single dose of peptide; conditions: single dose 5 mg/kg
Procedure: (§1) Mice used in sepsis or septic shock experiments: Female BALB/c mice of eight to twelve weeks of age were used for all experiments. The animals were bred in our facility under specific pathogen-free conditions according to the protocols described in the […] of European Laboratory Animal Science Associations (FELASA) Working group on Animal Health (Laboratory Animals 28:1-24, 1994).
(§2) Injection protocols: For the endotoxin model, BALB/c mice were injected i.p. with 150-300 μg LPS (E. coli 026:B6; Difco Lab., Detroit, Mich., USA). Control groups were treated with PBS i.p. only. To test the effect of peptides, they were dissolved in PBS and injected i.p. at predetermined points in time after LPS treatment.
Mice were scored for sickness severity using the following measurement scheme: • 0 No abnormalities. • 1 Percolated fur, but no detectable behavior differences compared to normal mice. • 2 Percolated fur, huddle reflex, responds to stimuli (such as tap on cage), just as active during handling as healthy mouse. • 3 Slower response to tap on cage, passive or docile when handled, but still curious when alone in a new setting. • 4 Lack of curiosity, little or no response to stimuli, quite immobile. • 5 Labored breathing, inability or slow to self-right after being rolled onto back (moribund, sacrificed). • D Dead.
A first set of septic shock experiments were set up to determine which of the peptides LQG, LQGV (SEQ ID NO:117), VLPALP (SEQ ID NO:140), VLPALPQ (SEQ ID NO:143), MTR, MTRV (SEQ ID NO:119), VVC or QVVC (SEQ ID NO:118) were capable of inhibiting lipopolysaccharide (LPS)-induced septic shock in mice by treating mice with a single dose of peptide at two hours after LPS treatment. Peptides were used at 5 mg/kg bodyweight. BALB/c mice were injected i.p. with escalating doses LPS (E. coli 026:B6; Difco Lab., Detroit, Mich. USA), predetermined to be leading to 80 to 100% mortality in 24 to 72 hours.
To test the effect of peptide early in the development of shock, mice were treated at two hours or at 24 hours after treatment with varying doses of LPS by i.p. injection with test peptide at 5 mg/kg bodyweight.

[3] = tested on: LPS (E. coli 026:B6)-induced sepsis in BALB/c mice; assay: endotoxin shock survival after early or late treatment with peptide
Procedure: as §1, §2
A further set of septic shock experiments were set up to determine which of the peptides LQG, LQGV (SEQ ID NO:117), VLPALP (SEQ ID NO:140), VLPALPQ (SEQ ID NO:143), MTR, MTRV (SEQ ID NO:119), VVC or AQGV (SEQ ID NO:120) under study were most suited to be used early and/or late after or throughout the development of shock. For determining the percent of endotoxin shock survival after late or early treatment with peptide, BALB/c mice were injected i.p. with 300 μg LPS (E. coli 026:B6; Difco Lab., Detroit, Mich. USA), predetermined to be leading to 100% mortality in 48 hours without peptide treatment.
To evaluate the effect of peptide treatment at an early or late point in time of development of shock, mice were treated at two hours or at 24 hours after LPS injection by i.p. injection with test peptide at 5 mg/kg bodyweight. The mice were followed for 84 hours instead of for 48 hours in the earlier experiments.

[4] = 2 hours after reperfusion, 5 mg/kg i.v.
[5] = 24 hours after reperfusion, 5 mg/kg i.v.
[6] = 72 hours after reperfusion, 5 mg/kg i.v.
[7] = t = 0 hr (before clamping), 5 mg/kg i.v.
[8] = 0 hours, peptide 5 mg/kg 2 hours after LPS
[9] = 0 hours, peptide 5 mg/kg 24 hours after LPS
[10] = 14 hours, peptide 5 mg/kg 2 hours after LPS
[11] = 14 hours, peptide 5 mg/kg 24 hours after LPS
[12] = 24 hours, peptide 5 mg/kg 2 hours after LPS
[13] = 24 hours, peptide 5 mg/kg 24 hours after LPS
[14] = 48 hours, peptide 5 mg/kg 2 hours after LPS
[15] = 48 hours, peptide 5 mg/kg 24 hours after LPS
[16] = 84 hours, peptide 5 mg/kg 2 hours after LPS
[17] = 84 hours, peptide 5 mg/kg 24 hours after LPS

| Substance | BUN after 25 minutes renal ischemia, mean [1, 4] | BUN after 25 minutes renal ischemia, mean [1, 5] | BUN after 25 minutes renal ischemia, mean [1, 6] | BUN after 25 minutes renal ischemia, mean [1, 7] | mice scored D (dead), effect at t = 48 hours ([2]; LPS dose 7**) | mice with sickness score 4, effect at t = 24 hours ([2]; LPS dose 7**) | mice with sickness score 5, effect at t = 24 hours ([2]; LPS dose 7**) | mice scored D (dead), effect at t = 48 hours ([2]; LPS dose 7*) | mice with sickness score 4, effect at t = 24 hours ([2]; LPS dose 7*) | mice with sickness score 5, effect at t = 48 hours ([2]; LPS dose 7*) | mice with sickness score 3, effect at t = 24 hours ([2]; LPS dose 10) | mice with sickness score 4, effect at t = 24 hours ([2]; LPS dose 10) | mice with sickness score 5, effect at t = 48 hours ([2]; LPS dose 10) | % Survival [3, 8] [%] | % Survival [3, 9] [%] | % Survival [3, 10] [%] | % Survival [3, 11] [%] | % Survival [3, 12] [%] | % Survival [3, 13] [%] | % Survival [3, 14] [%] | further results |
| --- | --- | --- | --- | --- | --- | --- | --- | --- | --- | --- | --- | --- | --- | --- | --- | --- | --- | --- | --- | --- | --- |
| LQG | 16.75 | 26.74 | 83.96 | 7.821 | 5 | 3 | 2 | 4 | 3 | 2 | 1 | 2 | 2 | 100 | 100 | 100 | 100 | 100 | 100 | 0 | BUN concentration versus PBS (in words) ([1]; at 24 hours post-reperfusion, 5 mg/kg i.v.): reduced BUN concentration; mice scored D (dead), effect at t = 24 hours ([2]; LPS dose 7**): 1; mice with sickness score 4, effect at t = 48 hours ([2]; LPS dose 7**): 1; mice with sickness score 5, effect at t = 24 hours ([2]; LPS dose 7*): 3; mice scored D (dead), effect at t = 24 hours ([2]; LPS dose 8): 1; mice scored D (dead), effect at t = 48 hours ([2]; LPS dose 8): 6; mice with sickness score 2, effect at t = 24 hours ([2]; LPS dose 8): 2; mice with sickness score 3, effect at t = 24 hours ([2]; LPS dose 8): 1; mice with sickness score 3, effect at t = 48 hours ([2]; LPS dose 8): 1; mice with sickness score 4, effect at t = 48 hours ([2]; LPS dose 8): 2; mice with sickness score 5, effect at t = 24 hours ([2]; LPS dose 8): 4; mice with sickness score 5, effect at t = 48 hours ([2]; LPS dose 8): 3; mice with sickness score 4, effect at t = 48 hours ([2]; LPS dose 10): 1; mice scored D (dead), effect at t = 48 hours ([2]; LPS dose 10, 5 mg/kg): 4 and 3; mice with sickness score 5, effect at t = 24 hours ([2]; LPS dose 10, 5 mg/kg): 4 and 3; % Survival [3, 15]: 0%; % Survival [3, 16]: 0%; % Survival [3, 17]: 0% |
| MTR | 17.13 | 66.23 | 104.0167 | 8.404 | 3 | 1 | 1 | 1 | 3 | 3 | 2 | 3 | 1 | 100 | 100 | 100 | 100 | 100 | 100 | 100 | BUN concentration versus the PBS control group (in words) ([1]; 5 mg/kg i.v.): no reducing effect on BUN concentration; mortality versus the PBS control group (in words) ([1]; 5 mg/kg i.v.): significant reduction of mortality; mortality at 72 hours post-reperfusion ([1]; 5 mg/kg i.v. before and after 25 minutes clamping, dead/total): 4/10; BUN concentration versus PBS (in words) ([1]; at 72 hours post-reperfusion, 5 mg/kg i.v.): significantly raise BUN levels; mice with sickness score 1, effect at t = 48 hours ([2]; LPS dose 7**): 3; mice with sickness score 2, effect at t = 24 hours ([2]; LPS dose 7**): 1; mice with sickness score 3, effect at t = 24 hours ([2]; LPS dose 7**): 3; mice with sickness score 3, effect at t = 24 hours ([2]; LPS dose 7*): 3; mice with sickness score 4, effect at t = 48 hours ([2]; LPS dose 7*): 2; mice scored D (dead), effect at t = 24 hours ([2]; LPS dose 10): 1; mice scored D (dead), effect at t = 48 hours ([2]; LPS dose 10): 3; mice with sickness score 1, effect at t = 48 hours ([2]; LPS dose 10): 2; % Survival [3, 15]: 100%; % Survival [3, 16]: 50%; % Survival [3, 17]: 100% |
